Read-outs that look alike come from different tables or passages of the source.
Legend:
[1] = system: caterpillars of the cotton bollworm (Heliothis armigera); assay: Heliothis armigera test; type: in vivo; settings: concentration of active compound 0.004%; after 6 days; dipped soybean shoots
Experimental: (§1) To produce a suitable preparation of active compound, 1 part by weight of active compound is mixed with the stated amounts of solvent and emulsifier, and the concentrate is diluted with emusifier-containing water to the desired concentration.
Soybean shoots (Glycine max) are treated by being dipped into the preparation of active compound of the desired concentration and are populated with caterpillars of the cotton bollworm (Heliothis armigera) while the leaves are still moist.
(§2) After the desired period of time, the kill in % is determined. 100% means that all caterpillars have been killed; 0% means that none of the caterpillars have been killed.

[2] = system: larvae of the mustard beetle (Phaedon cochleariae); assay: Phaedon larvae test; type: in vivo; settings: dipped cabbage leaves
Experimental: Phaedon larvae test [table] To produce a suitable preparation of active compound, 1 part by weight of active compound is mixed with the stated amounts of solvent and emulsifier, and the concentrate is diluted with emusifier-containing water to the desired concentration. Cabbage leaves (Brassica oleracea) are treated by being dipped into the preparation of active compound of the desired concentration and are populated with larvae of the mustard beetle (Phaedon cochleariae) while the leaves are still moist.

[3] = system: caterpillars of the diamond-back moth (Plutella xylostella); assay: Plutella test; type: in vivo; settings: concentration of active compound 0.004%; after 6 days; dipped cabbage leaves
Experimental: as §1
Cabbage leaves (Brassica oleracea) are treated by being dipped into the preparation of active compound of the desired concentration and are populated with caterpillars of the diamond-back moth (Plutella xylostella) while the leaves are still moist.
as §2

[4] = system: caterpillars of the army-worm (Spodoptera frugiperda); assay: Spodoptera frugiperda test; type: in vivo; settings: dipped cabbage leaves
Experimental: Spodoptera frugiperda test
as §1
Cabbage leaves (Brassica oleracea) are treated by being dipped into the preparation of active compound of the desired concentration and are populated with caterpillars of the army-worm (Spodoptera frugiperda) while the leaves are still moist.
as §2

[5] = system: all stages of the greenhouse red spider mite (Tetranychus urticae); assay: Tetranychus test (OP-resistant/dip treatment); type: in vivo; settings: after 7 days, dipped bean plants
Experimental: Tetranychus test (OP-resistant/dip treatment)
To produce a suitable preparation of active compound, 1 part by weight of active compound is mixed with the stated amounts of solvent and emulsifier, and the concentrate is diluted with emulsifier-containing water to the desired concentration.
Bean plants (Phaseolus vulgaris) which are heavily infested by all stages of the greenhouse red spider mite (Tetranychus urticae) are dipped into a preparation of the active compound of the desired concentration.
After the desired period of time, the action in % is determined. 100% means that all spider mites have been killed; 0% means that none of the spider mites have been killed.

[6] = HPLC log P determination; type: physicochemical; settings: alkane/water partition, estimated by HPLC retention
Experimental: * log P=[…] logarithm to base 10 of the alkane/water partition coefficient, determined by HPLC analysis using water/acetonitrile as mobile phase on 125×4.0 mm Kromasil […] (5 μm); flow rate: 1.5 ml/min.

[7] = concentration of active compound 0.004%, after 6 days
[8] = concentration of active compound 0.01%, after 7 days
[9] = pH 2.3, read-out: HPLC log P (pH 2.3)

Cc1ccccc1C1=NC(c2ccc(-c3ccc(OC(F)(F)F)cc3)cc2)CC1 (stereo not drawn) [Example I-9]
kill in % [1]: 100%
kill in % [2, 7]: 100%
kill in % [3]: 100%
kill in % [4, 7]: 100%
kill (action in %) ([5]; concentration of active compound 0.004%): 98%
chromatographic logP ([6]; neutral, HPLC, water/acetonitrile mobile phase, read-out: HPLC log P (neutral)): 6.05

Cc1ccccc1C1=NC(c2ccc(-c3ccc(OC(F)(F)C(F)F)cc3)cc2)CC1 (stereo not drawn) [Example I-43]
kill in % [2, 8]: 100%
kill in % [4, 8]: 100%
kill (action in %) ([5]; concentration of active compound 0.01%): 100%
chromatographic logP [6, 9]: 3.02

O=C1CCC(c2ccc(-c3ccc(OC(F)(F)C(F)F)cc3)cc2)N1 (stereo not drawn) [Example XI-43]
chromatographic logP ([6]; pH 2-3, read-out: HPLC log P (pH 2-3)): 2.79

Cc1ccccc1C(=O)CCC(NC(=O)OC(C)(C)C)c1ccc(-c2ccc(OC(F)(F)C(F)F)cc2)cc1 (stereo not drawn) [Example VIII-43]
chromatographic logP [6, 9]: 5.05

Source: US6632833B1, “2-(2-methylphenyl)-3,4-dihydro-2H-pyrrole derivatives” (Bayer Aktiengesellschaft, priority 1998, dated 2003)
